{"source": "patent US20040121316A1", "about": "(priority 2002, published 2004)", "key": {"[1]": {"tested_on": "wild-type HIV-1 strain IIIB", "experiment": "microbe, parasite or virus in culture", "format": "cell-based", "set-up": "scale not given here", "settings": "for EC50: Human immunodeficiency virus 1, IIIB"}, "[2]": {"target": "T1, recombinant HIV-1 protease (Human immunodeficiency virus type 1 group M subtype B, UniProt P04585)", "T1 construct": "Enzyme: recombinant HIV-1 protease expressed in E.Coli; purchased Bachem California, Inc. H-9040; host or cells: E. coli", "experiment": "biochemical"}, "[3]": {"tested_on": "mutant HIV-1 I84V/L90M", "experiment": "Resistance Evaluation, I84V/L90M fold change", "format": "cell-based", "set-up": "scale not given here"}, "[4]": {"tested_on": "HIV-1 48V54V82A", "experiment": "microbe, parasite or virus in culture", "format": "cell-based"}, "[5]": {"tested_on": "HIV-1 46I50V", "experiment": "microbe, parasite or virus in culture", "format": "cell-based"}, "[6]": {"tested_on": "WT HIV-1", "experiment": "microbe, parasite or virus in culture", "format": "cell-based"}, "[7]": {"tested_on": "HIV-1 30N82I88D", "experiment": "microbe, parasite or virus in culture", "format": "cell-based", "settings": "Human immunodeficiency virus 1, read-out: Cell-based assay (MT-4) EC50/nM 30N82I88D"}, "[8]": {"tested_on": "HIV-1 84V90M", "experiment": "microbe, parasite or virus in culture", "format": "cell-based"}, "[9]": {"target": "84V90M HIV protease (Human immunodeficiency virus type 1 group M subtype B, UniProt P04585, I572V/L578M)", "experiment": "biochemical", "set-up": "species or system HIV-1"}, "[10]": {"settings": "EC50 of mutant I84V/L90M relative to wild type, class symbols"}, "[11]": {"settings": "Human immunodeficiency virus 1, read-out: Cell-based assay (MT-4) EC50/nM 48V54V82A"}, "[12]": {"settings": "Human immunodeficiency virus 1, read-out: Cell-based assay (MT-4) EC50/nM 46I50V"}, "[13]": {"settings": "Human immunodeficiency virus 1, read-out: Cell-based assay (MT-4) EC50/nM WT"}, "[14]": {"settings": "Human immunodeficiency virus 1, read-out: Cell-based assay (MT-4) EC50/nM 84V90M"}, "[15]": {"settings": "read-out: Cell-based assay (MT-4) EC50/nM WT"}}, "note": "Where “and” joins values, the source holds several entries; their conditions need not be identical. Equal values may be shown once. Read-outs that look alike come from different tables or passages of the source.", "data": [{"smiles": "CCCCOC(=O)C(C)OP(=O)(COc1ccc(CC(NC(=O)OC2COC3OCCC23)C(O)CN(CC(C)C)S(=O)(=O)c2ccc(OC)cc2)cc1)Oc1ccccc1", "note": "(stereo not drawn) [Example 31c]", "values": [{"measurement": "EC50", "setting": "[1]", "result": "50 to 500", "unit": "nM"}, {"measurement": "Ki", "setting": "[2]; Ki, class symbols, Table 10", "result": "0.01 to 0.1", "unit": "nM"}, {"measurement": "I84V/L90M fold change", "setting": "[3]; [10]", "result": "− (≦3)"}]}, {"smiles": "CCOP(=O)(COCCCN1C(=O)N(Cc2ccc3[nH]nc(N)c3c2)C(Cc2ccccc2)C(O)C(O)C1Cc1ccccc1)OCC", "note": "(stereo not drawn) [OCH2PO3Et2]", "values": [{"measurement": "EC50", "setting": "[4]; [11]", "result": 175, "unit": "nM"}, {"measurement": "EC50", "setting": "[5]; [12]", "result": 138, "unit": "nM"}, {"measurement": "EC50", "setting": "[6]; [13]", "result": 356, "unit": "nM"}, {"measurement": "EC50", "setting": "[7]", "result": 145, "unit": "nM"}, {"measurement": "EC50", "setting": "[8]; [14]", "result": "> 6000", "unit": "nM"}, {"measurement": "IC50", "setting": "[9]", "result": 157, "unit": "nM"}]}, {"smiles": "COC(=O)N[C@H](C(=O)N[C@@H](Cc1ccccc1)[C@@H](O)CN(Cc1ccc(-c2ccccn2)cc1)NC(=O)[C@@H](NC(=O)OC)C(C)(C)C)C(C)(C)C", "note": "[Atazanavir, reference compound]", "values": [{"measurement": "EC50", "setting": "[1]", "result": "< 50", "unit": "nM"}, {"measurement": "Ki", "setting": "[2]; Ki", "result": "0.01 to 0.1", "unit": "nM"}, {"measurement": "I84V/L90M fold change", "setting": "[3]; [10]", "result": "+++ (>30)"}]}, {"smiles": "CCOC(=O)C(C)OP(=O)(Cc1ccc2c(c1)CCN(CC(NC(=O)OC1COC3OCCC13)C(O)CN(CC(C)C)S(=O)(=O)c1ccc(OC)cc1)C2)Oc1ccccc1", "note": "(stereo not drawn)", "values": [{"measurement": "Ki", "setting": "[2]; Ki, class symbols, Table 10", "result": "0.1 to 1", "unit": "nM"}, {"measurement": "I84V/L90M fold change", "setting": "[3]; [10]", "result": "+ (>3 to ≦10)"}]}, {"smiles": "Nc1n[nH]c2ccc(CN3C(=O)N(Cc4cccc(OCc5ccccc5)c4)C(Cc4ccccc4)C(O)C(O)C3Cc3ccccc3)cc12", "note": "(stereo not drawn) [m-OBn]", "values": [{"measurement": "EC50", "setting": "[4]; MT-4, 48V54V82A, read-out: Cell-based assay (MT-4) EC50/nM 48V54V82A", "result": 709, "unit": "nM"}, {"measurement": "EC50", "setting": "[5]; MT-4, 46I50V, read-out: Cell-based assay (MT-4) EC50/nM 46I50V", "result": 601, "unit": "nM"}, {"measurement": "EC50", "setting": "[6]; [15]", "result": 218, "unit": "nM"}]}, {"smiles": "COc1ccc(S(=O)(=O)N(CC(C)C)C[C@@H](O)[C@H](Cc2ccc(OCP(=O)(Oc3ccccc3)Oc3ccccc3)cc2)NC(=O)OC2CCOC2)cc1", "note": "(stereo partly drawn) [OMe, phenol]", "values": [{"measurement": "EC50 (nM)", "setting": "[1]", "result": "+ + +"}, {"measurement": "Ki (pM)", "setting": "[2]", "result": "+ + +"}, {"measurement": "I84V/L90M fold change", "setting": "[3]; mutant I84V/L90M vs wild type", "result": "+ (>3 to ≦10)"}]}, {"smiles": "COc1ccc(S(=O)(=O)N(CC(C)C)CC(O)C(Cc2ccc(OCP(=O)(NC(C)C(=O)OC(C)C)Oc3ccccc3)cc2)NC(=O)OC2COC3OCCC23)cc1", "note": "(stereo not drawn) [Example 30c]", "values": [{"measurement": "Ki", "setting": "[2]; Ki, class symbols, Table 10", "result": "0.01 to 0.1 nM and < 0.01 nM"}, {"measurement": "I84V/L90M fold change", "setting": "[3]; [10]", "result": "− (≦3)"}]}, {"smiles": "CCOC(=O)C(C)OP(=O)(COc1ccc2c(c1)CCN(CC(NC(=O)OC1COC3OCCC13)C(O)CN(CC(C)C)S(=O)(=O)c1ccc(OC)cc1)C2)Oc1ccccc1", "note": "(stereo not drawn)", "values": [{"measurement": "Ki", "setting": "[2]; Ki, class symbols, Table 10", "result": "0.1 to 1", "unit": "nM"}, {"measurement": "I84V/L90M fold change", "setting": "[3]; [10]", "result": "+ (>3 to ≦10)"}]}, {"smiles": "CCOP(=O)(COc1ccc(CC2C(O)C(O)C(Cc3ccc(O)cc3)N(Cc3ccc(O)cc3)C(=O)N2Cc2ccc(O)cc2)cc1)OCC", "note": "(stereo not drawn) [OH, Ph-pOH, OCH2PO3Et2]", "values": [{"measurement": "EC50", "setting": "[4]; [11]", "result": 986, "unit": "nM"}, {"measurement": "EC50", "setting": "[5]; [12]", "result": 1110, "unit": "nM"}, {"measurement": "EC50", "setting": "[6]; [13]", "result": 285, "unit": "nM"}, {"measurement": "EC50", "setting": "[7]", "result": 211, "unit": "nM"}, {"measurement": "EC50", "setting": "[8]; [14]", "result": 1910, "unit": "nM"}, {"measurement": "IC50", "setting": "[9]", "result": 18, "unit": "nM"}]}, {"smiles": "Nc1n[nH]c2ccc(CN3C(=O)N(CCCOCP(=O)(O)O)C(Cc4ccccc4)C(O)C(O)C3Cc3ccccc3)cc12", "note": "(stereo not drawn) [OCH2PO3H2]", "values": [{"measurement": "EC50", "setting": "[6]; [15]", "result": 1070, "unit": "nM"}, {"measurement": "EC50", "setting": "[8]; MT-4, 84V90M, read-out: Cell-based assay (MT-4) EC50/nM 84V90M", "result": "> 6000", "unit": "nM"}]}, {"smiles": "CCOC(=O)C(C)OP(=O)(Cc1ccc2c(c1)CCN(C[C@H](NC(=O)O[C@H]1CO[C@H]3OCC[C@H]31)[C@H](O)CN(CC(C)C)S(=O)(=O)c1ccc(OC)cc1)C2)Oc1ccccc1", "note": "(stereo partly drawn)", "values": [{"measurement": "EC50 (nM)", "setting": "[1]", "result": "+ +"}, {"measurement": "Ki (pM)", "setting": "[2]", "result": "+ +"}, {"measurement": "I84V/L90M fold change", "setting": "[3]; mutant I84V/L90M vs wild type", "result": "+ +"}]}, {"smiles": "COc1ccc(S(=O)(=O)N(CC(C)C)CC(O)C(CC2=CCN(CCP(=O)(OCc3ccccc3)OCc3ccccc3)CC2)NC(=O)OC2COC3OCCC23)cc1", "note": "(stereo not drawn) [drawing 673]", "values": [{"measurement": "EC50 (nM)", "setting": "[1]", "result": "+ +"}, {"measurement": "Ki", "setting": "[2]; read-out: Ki", "result": "> 1", "unit": "nM"}, {"measurement": "I84V/L90M fold change", "setting": "[3]; mutant I84V/L90M vs wild type", "result": "− (≦3)"}]}, {"smiles": "CC(C)CN(C[C@@H](O)[C@H](Cc1ccc(OCP(=O)(Oc2ccccc2)Oc2ccccc2)cc1)NC(=O)OC1CCOC1)S(=O)(=O)c1ccc(N)cc1", "note": "(stereo partly drawn) [NH2, phenol]", "values": [{"measurement": "EC50 (nM)", "setting": "[1]", "result": "+ +"}, {"measurement": "Ki", "setting": "[2]; read-out: Ki", "result": "0.1 to 1", "unit": "nM"}, {"measurement": "I84V/L90M fold change", "setting": "[3]; mutant I84V/L90M vs wild type", "result": "− (≦3)"}]}, {"smiles": "CCOC(=O)C(C)NP(=O)(COc1ccc(CC(NC(=O)OC2COC3OCCC23)C(O)CN(CC(C)C)S(=O)(=O)c2ccc(OC)cc2)cc1)Oc1ccccc1", "note": "(stereo not drawn) [Example 30b]", "values": [{"measurement": "EC50", "setting": "[1]", "result": "< 50", "unit": "nM"}, {"measurement": "Ki", "setting": "[2]; Ki, class symbols, Table 10", "result": "< 0.01", "unit": "nM"}]}, {"smiles": "COc1ccc(S(=O)(=O)N(CC(C)C)CC(O)C(Cc2ccc(NCP(=O)(O)O)cc2)NC(=O)OC2COC3OCCC23)cc1", "note": "(stereo not drawn)", "values": [{"measurement": "EC50 (nM)", "setting": "[1]", "result": "+ +"}, {"measurement": "Ki", "setting": "[2]; read-out: Ki", "result": "0.1 to 1", "unit": "nM"}, {"measurement": "I84V/L90M fold change", "setting": "[3]; mutant I84V/L90M vs wild type", "result": "+ (>3 to ≦10)"}]}, {"smiles": "CCOP(=O)(COCCCCN1C(=O)N(Cc2ccc3[nH]nc(N)c3c2)C(Cc2ccccc2)C(O)C(O)C1Cc1ccccc1)OCC", "note": "(stereo not drawn) [CH2OCH2PO3Et2]", "values": [{"measurement": "EC50", "setting": "[4]; [11]", "result": 430, "unit": "nM"}, {"measurement": "EC50", "setting": "[6]; [13]", "result": 119, "unit": "nM"}, {"measurement": "EC50", "setting": "[7]", "result": 267, "unit": "nM"}, {"measurement": "EC50", "setting": "[8]; [14]", "result": 3300, "unit": "nM"}, {"measurement": "IC50", "setting": "[9]", "result": 123, "unit": "nM"}]}, {"smiles": "CCOP(=O)(COc1ccc(CC(NC(=O)OC2CCOC2)C(O)CN(CC(C)C)S(=O)(=O)c2ccc(OC)cc2)cc1)OCC", "note": "(stereo not drawn) [OMe, OEt]", "values": [{"measurement": "EC50 (nM)", "setting": "[1]", "result": "+ + +"}, {"measurement": "Ki (pM)", "setting": "[2]", "result": "+ + and + + +"}, {"measurement": "I84V/L90M fold change", "setting": "[3]; mutant I84V/L90M vs wild type", "result": "+ + and + + +"}]}]}
